Assay results reported in the supplement of paper PMC6045584.
± gives the standard deviation of the averaged measurements.

Experiments:
FORETINIB = compound: COc1cc2c(Oc3ccc(NC(=O)C4(C(=O)Nc5ccc(F)cc5)CC4)cc3F)ccnc2cc1OCCCN1CCOCC1 [FORETINIB]; assay: surviving fraction relative to DMSO-only wells; higher = less growth inhibition; settings: exposure time: 5 days
In short: (§1)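 After seeding at 250–500 cells per well in 384-well plates and a 24-hour wait, log-phase tumour cell lines were exposed without interruption for five days to inhibitors at 0.5, 1, 5, 10, 50, 100, 500 and 1000 nM. CellTiter-Glo luminescence was recorded after 10 minutes at room temperature. Viability is reported as surviving fraction, the luminescence normalised to the median of DMSO-only wells.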

MLN-4924 = compound: NS(=O)(=O)OC[C@@H]1C[C@@H](n2ccc3c(N[C@H]4CCc5ccccc54)ncnc32)C[C@@H]1O [MLN-4924]; assay: as above; settings: exposure time: 5 days
In short: as §1

| Test System | surviving fraction (FORETINIB; 0.5 nM) | surviving fraction (FORETINIB; 1 nM) | surviving fraction (FORETINIB; 5 nM) | surviving fraction (FORETINIB; 10 nM) | surviving fraction (FORETINIB; 50 nM) | surviving fraction (FORETINIB; 100 nM) | surviving fraction (FORETINIB; 500 nM) | surviving fraction (FORETINIB; 1000 nM) | surviving fraction (MLN-4924; 0.5 nM) | surviving fraction (MLN-4924; 1 nM) | surviving fraction (MLN-4924; 5 nM) | surviving fraction (MLN-4924; 10 nM) | surviving fraction (MLN-4924; 50 nM) | surviving fraction (MLN-4924; 100 nM) | surviving fraction (MLN-4924; 500 nM) | surviving fraction (MLN-4924; 1000 nM) |
| --- | --- | --- | --- | --- | --- | --- | --- | --- | --- | --- | --- | --- | --- | --- | --- | --- |
| SAOS2 BONE | 1.17 ± 0.045 | 1.12 ± 0.072 | 1.12 ± 0.048 | 1.17 ± 0.069 | 1.15 ± 0.15 | 1.08 ± 0.15 | 0.611 ± 0.082 | 0.162 ± 0.03 | 1.14 ± 0.096 | 1.1 ± 0.082 | 1.13 ± 0.057 | 1.1 ± 0.069 | 0.313 ± 0.03 | 0.095 ± 0.0095 | 0.038 ± 0.0017 | 0.0377 ± 0.0015 |
| CAL51 BREAST | 0.991 ± 0.039 | 0.964 ± 0.053 | 1.04 ± 0.011 | 0.9858 ± 0.0063 | 0.993 ± 0.064 | 0.979 ± 0.052 | 0.162 ± 0.0044 | 0.136 ± 0.01 | 1.01 ± 0.035 | 1.01 ± 0.045 | 1.06 ± 0.025 | 1.01 ± 0.051 | 0.922 ± 0.067 | 0.702 ± 0.085 | 0.2 ± 0.022 | 0.128 ± 0.012 |
| C33A CERVIX | 1.02 ± 0.059 | 1.06 ± 0.086 | 1.1 ± 0.042 | 1.14 ± 0.098 | 1.03 ± 0.041 | 1.04 ± 0.047 | 0.596 ± 0.057 | 0.508 ± 0.029 | 0.905 ± 0.042 | 0.916 ± 0.093 | 0.929 ± 0.13 | 0.952 ± 0.11 | 0.542 ± 0.032 | 0.358 ± 0.027 | 0.132 ± 0.026 | 0.0803 ± 0.028 |
| HSSYII SYNOVIAL | 0.972 ± 0.039 | 0.941 ± 0.031 | 0.956 ± 0.038 | 0.92 ± 0.039 | 0.85 ± 0.028 | 0.771 ± 0.028 | 0.208 ± 0.021 | 0.0695 ± 0.0013 | 1.01 ± 0.14 | 1 ± 0.078 | 0.965 ± 0.033 | 0.992 ± 0.071 | 0.286 ± 0.012 | 0.166 ± 0.008 | 0.0248 ± 0.001 | 0.0283 ± 0.002 |
| HUO3N1 BONE | 1 ± 0.035 | 0.992 ± 0.079 | 1.06 ± 0.059 | 1.01 ± 0.039 | 0.903 ± 0.04 | 0.819 ± 0.006 | 0.619 ± 0.02 | 0.412 ± 0.025 | 0.9977 ± 0.0055 | 0.994 ± 0.022 | 1.02 ± 0.017 | 1.05 ± 0.036 | 1.17 ± 0.041 | 1.19 ± 0.034 | 0.663 ± 0.031 | 0.528 ± 0.014 |
| ZR751 BREAST | 1.04 ± 0.21 | 1.12 ± 0.12 | 0.969 ± 0.1 | 1.06 ± 0.16 | 0.963 ± 0.06 | 1.07 ± 0.062 | 0.902 ± 0.062 | 0.783 ± 0.1 | 1.23 ± 0.056 | 1.08 ± 0.17 | 1.13 ± 0.13 | 1.24 ± 0.036 | 1.06 ± 0.13 | 1.03 ± 0.092 | 0.784 ± 0.11 | 0.669 ± 0.063 |
| BT549 BREAST | 1.09 ± 0.059 | 1.08 ± 0.059 | 1.09 ± 0.15 | 1.12 ± 0.089 | 1.08 ± 0.12 | 1.15 ± 0.12 | 0.701 ± 0.022 | 0.222 ± 0.014 | 1.05 ± 0.043 | 1 ± 0.19 | 1.02 ± 0.064 | 0.957 ± 0.052 | 0.732 ± 0.14 | 0.575 ± 0.062 | 0.194 ± 0.067 | 0.148 ± 0.046 |
| JIMT1 BREAST | 0.991 ± 0.015 | 0.978 ± 0.032 | 1.03 ± 0.058 | 1.03 ± 0.031 | 1 ± 0.041 | 1.01 ± 0.11 | 0.62 ± 0.033 | 0.484 ± 0.087 | 1.06 ± 0.04 | 1.016 ± 0.0069 | 1.06 ± 0.019 | 1.06 ± 0.017 | 1.09 ± 0.056 | 1.06 ± 0.062 | 0.764 ± 0.046 | 0.539 ± 0.073 |
| PCI30 HEADNECK | 1.07 ± 0.09 | 1.1 ± 0.043 | 1.1 ± 0.019 | 1.11 ± 0.045 | 1.04 ± 0.028 | 1.04 ± 0.072 | 0.806 ± 0.056 | 0.484 ± 0.0076 | 1.01 ± 0.028 | 1.01 ± 0.072 | 1.04 ± 0.023 | 0.939 ± 0.027 | 0.724 ± 0.028 | 0.701 ± 0.056 | 0.414 ± 0.015 | 0.377 ± 0.019 |
| SJSA1 BONE | 1.14 ± 0.026 | 1.7 ± 0.03 | 1.69 ± 0.15 | 1.74 ± 0.063 | 1.48 ± 0.1 | 1.74 ± 0.075 | 1.46 ± 0.069 | 1.83 ± 0.038 | 0.247 ± 0.017 | 1.7 ± 0.13 | 1.68 ± 0.098 | 1.57 ± 0.046 | 1.64 ± 0.17 | 1.8 ± 0.063 | 1.62 ± 0.033 | 1.73 ± 0.071 |
| MDAMB157 BREAST | 0.967 ± 0.045 | 0.987 ± 0.035 | 1.1 ± 0.095 | 0.975 ± 0.0044 | 0.971 ± 0.074 | 0.934 ± 0.081 | 0.537 ± 0.085 | 0.231 ± 0.02 | 1 ± 0.019 | 0.966 ± 0.087 | 0.968 ± 0.07 | 0.931 ± 0.041 | 0.906 ± 0.09 | 0.743 ± 0.054 | 0.379 ± 0.043 | 0.267 ± 0.022 |
| BT20 BREAST | 1.11 ± 0.032 | 1.14 ± 0.13 | 1.12 ± 0.026 | 1.13 ± 0.045 | 1.22 ± 0.12 | 1.13 ± 0.037 | 0.382 ± 0.091 | 0.136 ± 0.017 | 1.13 ± 0.042 | 1.168 ± 0.0072 | 1.13 ± 0.073 | 1.16 ± 0.1 | 1.2 ± 0.084 | 1.23 ± 0.18 | 0.989 ± 0.098 | 0.645 ± 0.044 |
| LNCAP PROSTATE | 1.04 ± 0.022 | 1.02 ± 0.046 | 0.968 ± 0.075 | 1.01 ± 0.1 | 0.997 ± 0.074 | 1.04 ± 0.039 | 0.261 ± 0.03 | 0.189 ± 0.028 | 0.939 ± 0.1 | 1 ± 0.021 | 0.803 ± 0.092 | 0.496 ± 0.051 | 0.085 ± 0.014 | 0.026 ± 0.001 | 0.0227 ± 0.0011 | 0.024 |
| HCC202 BREAST | 1.04 ± 0.11 | 1.33 ± 0.14 | 1.24 ± 0.37 | 1.02 ± 0.033 | 1.48 ± 0.2 | 1.34 ± 0.33 | 1.18 ± 0.15 | 0.995 ± 0.23 | 1.14 ± 0.32 | 1.07 ± 0.26 | 1.24 ± 0.12 | 1.131 ± 0.0092 | 0.731 ± 0.22 | 0.557 ± 0.22 | 0.299 ± 0.066 | 0.265 ± 0.015 |
| SCC90 HEADNECK | 1.08 ± 0.073 | 1.02 ± 0.045 | 1.1 ± 0.19 | 1.08 ± 0.071 | 1.23 ± 0.061 | 1.12 ± 0.12 | 0.753 ± 0.077 | 0.753 ± 0.25 | 1.09 ± 0.27 | 1.04 ± 0.042 | 1.04 ± 0.099 | 0.541 ± 0.0053 | 0.212 ± 0.033 | 0.167 ± 0.01 | 0.144 ± 0.018 | 0.16 ± 0.032 |
| NY BONE | 1.05 ± 0.035 | 1.03 ± 0.034 | 1.07 ± 0.033 | 1.016 ± 0.0061 | 0.91 ± 0.019 | 0.93 ± 0.045 | 0.558 ± 0.047 | 0.587 ± 0.031 | 1.05 ± 0.024 | 1.03 ± 0.02 | 1.18 ± 0.036 | 1.2 ± 0.04 | 0.82 ± 0.073 | 0.48 ± 0.0085 | 0.289 ± 0.0061 | 0.232 ± 0.0095 |
